Source: US9011853B2, “B7-H4 fusion proteins and methods of use thereof” (Amplimmune, Inc., priority 2009, dated 2015)
Values joined by “and” are separate entries in the source; they are usually repeats but may differ in a detail not shown here. Equal values may be shown once.

Test system: serum levels of 58 analytes
Experiment: Serum biomarker analysis, quantitative immunoassay multi-analyte profiling (Rules-Based Medicine RodentMAP v2.9), AA#80
Format: in vivo, mouse
Conditions: serum
Procedure: In AA#80, serum samples were collected on Day 27, Day 34, Day 41 and Day 55 via the submandibular vein. Approximately 200 μL of blood per mouse was collected in Microtainer® serum separator tubes. Serum was removed following centrifugation and stored at <−65° C. until analysis.
Selected serum samples were sent to Rules-Based Medicine (Austin, Tex.) for quantitative immunoassay multi-analyte profiling of serum samples, with the goal of identifying biomarkers that could be used to monitor disease progression and response to B7-H4-Ig treatment. Day 27, Day 34, and Day 41 sera from the three representative mice in the B7-H4-Ig group (tag #3332, 3334, and 3338) and three representative mice in the Synagis® group (tag #3324, 3329, and 3330) were analyzed for levels of 58 analytes using the RodentMAP v2.9 Testing Service.
Data from the Rules-Based Medicine analysis was analyzed using Microsoft Excel and GraphPad Prism software. T-tests were performed to compare the levels of each analyte in the B7-H4-Ig versus Synagis® treated samples. No correction was made for multiple comparisons. Additionally, correlation coefficients were calculated for each analyte versus disease score.

Substance: Human B7-H4-Ig: human B7-H4 extracellular domain fused to hinge, CH2 and CH3 regions of human immunoglobulin Cγ1 chain; representative SEQ ID NOs:114-137
- SAP (Serum Amyloid P): Human LgG1 control vs. human B7-H4 Ig, ALL (p of difference between groups, ALL): 0.26
- SAP (Serum Amyloid P): Human LgG1 control vs. human B7-H4 Ig, D 27 (p of difference between groups, D 27): 0.32
- SAP (Serum Amyloid P): Human LgG1 control vs. human B7-H4 Ig, D 34 (p of difference between groups, D 34): 0.50
- SAP (Serum Amyloid P): Human LgG1 control vs. human B7-H4 Ig, D 41 (p of difference between groups, D 41): 0.13
- M-CSF (Macrophage-Colony Stimulating Factor) (Day 27, LDD 0.01795): 6.88 ng/mL and 6.51 ng/mL and 6.21 ng/mL
- MIP-1gamma (Macrophage Inflammatory Protein-1gamma) (Day 27, LDD 0.0736): 43.2 ng/mL and 38.6 ng/mL and 32.1 ng/mL
- TNF-alpha (Tumor Necrosis Factor-alpha) (Day 27, LDD 0.137): <low>
- TEMP-1 (Tissue Inhibitor of Metalicproteinase Type-1) (Day 27, LDD 0.18): 1.38 ng/mL and 1.31 ng/mL and 1.14 ng/mL
- IL-5 (Interleukin-5) (Day 27, LDD 0.194): 0.474 ng/mL and 0.333 ng/mL
- MIP-1alpha (Macrophage Inflammatory Protein-1alpha) (Day 27, LDD 0.2255): 2.83 ng/mL and 3.13 ng/mL and 3.03 ng/mL
- MIP-3beta (Macrophage Inflammatory Protein-3beta) (Day 27, LDD 0.465): 2.6 ng/mL and 2.79 ng/mL and 2.52 ng/mL
- Tissue Factor (Day 27, LDD 0.5175): 8.32 ng/mL and 11.7 ng/mL and 10 ng/mL
- MPO (Myeloperoxidase) (Day 27, LDD 0.95): 245 ng/mL and 227 ng/mL and 191 ng/mL
- SGOT (Serum Glutamic-Oxaloacetic Transaminase) (Day 27, LDD 1.86): 74.3 µg/mL and 84.6 µg/mL and 94.3 µg/mL
- TPO (Thromboproletin) (Day 27, LDD 2.66): 38 ng/mL and 39.8 ng/mL and 34.2 ng/mL
- SAP (Setrum Amtyloid P) (Day 27, LDD 5.4): 41 µg/mL and 39.5 µg/mL and 30.7 µg/mL
- MIP-2 (Macrophage Inflammatory Protein-2) (Day 27, LDD 7.174): 20.9 pg/mL and 16.3 pg/mL and 21.6 pg/mL
- MMP-9 (Matrix Metalloproteinase-9) (Day 27, LDD 10): 266 ng/mL and 140 ng/mL
- MCP-1 (Monocyte Chemoattractant Protein-1) (Day 27, LDD 16.924): 72.6 pg/mL and 55.4 pg/mL and 66.9 pg/mL
- VCAM-1 (Vescular Cell Adhesion Molecule-1) (Day 27, LDD 19): 2250 ng/mL and 2120 ng/mL and 2130 ng/mL
- MDC (Macrophage-Derived Chemokine) (Day 27, LDD 21.85): 1250 pg/mL and 1110 pg/mL and 1040 pg/mL
- Myoglobin (Day 27, LDD 24): 17.5 ng/mL and 12.1 ng/mL and 9.69 ng/mL
- MCP-3 (Monocyte Chemoattractant Protein-3) (Day 27, LDD 31.36): 160 pg/mL and 120 pg/mL and 129 pg/mL
- VEGF (Vescular Endotheial Cell Growth Factor) (Day 27, LDD 38.2): 150 pg/mL and 128 pg/mL and 160 pg/mL
- IP-10 (Inducible Protein-10) (Day 27, LDD 40.28): 57.3 pg/mL and 55.5 pg/mL and 38.6 pg/mL
- LIF (Leukemia Infabitory Factor) (Day 27, LDD 43.6): 1540 pg/mL and 1500 pg/mL
- MCP-5 (Monocyte Chemoattractant Protein-5) (Day 27, LDD 46.38): 41.4 pg/mL and 33.8 pg/mL and 29.4 pg/mL
- SCF (Stem Cell Factor) (Day 27, LDD 75.17): 204 pg/mL and 194 pg/mL and 275 pg/mL
- MIP-1beta (Macrophage Inflammatory Protein-1beta) (Day 27, LDD 77.65): 110 pg/mL and 115 pg/mL and 173 pg/mL
- Lymphotactin (Day 27, LDD 85.48): 164 pg/mL and 169 pg/mL and 194 pg/mL
- VWF (Von Willebrand Factor) (Day 27, LDD 98.6): 143 ng/mL and 123 ng/mL and 107 ng/mL
- M-CSF (Macrophage-Colony Stimulating Factor) (Day 34, LDD 0.01795): 5.79 ng/mL and 6.35 ng/mL and 6.51 ng/mL
- MIP-1gamma (Macrophage Inflammatory Protein-1gamma) (Day 34, LDD 0.0736): 50.4 ng/mL and 30.1 ng/mL and 41 ng/mL
- TNF-alpha (Tumor Necrosis Factor-alpha) (Day 34, LDD 0.137): <low>
- IL-5 (Interleukin-5) (Day 34, LDD 0.194): 0.474 ng/mL and 0.264 ng/mL and 0.403 ng/mL
- MIP-1alpha (Macrophage Inflammatory Protein-1alpha) (Day 34, LDD 0.2255): 3.03 ng/mL and 2.88 ng/mL and 3.08 ng/mL
- MIP-3beta (Macrophage Inflammatory Protein-3beta) (Day 34, LDD 0.465): 2.79 ng/mL and 2.49 ng/mL and 3.11 ng/mL
- Tissue Factor (Day 34, LDD 0.5175): 10.8 ng/mL and 10.4 ng/mL and 13.3 ng/mL
- MPO (Myeloperoxidase) (Day 34, LDD 0.95): 247 ng/mL and 254 ng/mL and 242 ng/mL
- TPO (Thromboproletin) (Day 34, LDD 2.66): 43.4 ng/mL and 30.4 ng/mL and 36.1 ng/mL
- SAP (Setrum Amtyloid P) (Day 34, LDD 5.4): 51.8 µg/mL and 31 µg/mL and 42.6 µg/mL
- MIP-2 (Macrophage Inflammatory Protein-2) (Day 34, LDD 7.174): 36.8 pg/mL and 26.6 pg/mL and 22.2 pg/mL
- MMP-9 (Matrix Metalloproteinase-9) (Day 34, LDD 10): 503 ng/mL and 334 ng/mL and 255 ng/mL
- MCP-1 (Monocyte Chemoattractant Protein-1) (Day 34, LDD 16.924): 84.6 pg/mL and 56 pg/mL and 101 pg/mL
- VCAM-1 (Vescular Cell Adhesion Molecule-1) (Day 34, LDD 19): 1860 ng/mL and 2190 ng/mL and 2470 ng/mL
- MDC (Macrophage-Derived Chemokine) (Day 34, LDD 21.85): 1390 pg/mL and 1120 pg/mL and 1360 pg/mL
- VEGF (Vescular Endotheial Cell Growth Factor) (Day 34, LDD 38.2): 160 pg/mL and 141 pg/mL and 155 pg/mL
- IP-10 (Inducible Protein-10) (Day 34, LDD 40.28): 81 pg/mL and 59 pg/mL and 54.2 pg/mL
- LIF (Leukemia Infabitory Factor) (Day 34, LDD 43.6): 1430 pg/mL and 1500 pg/mL and 1480 pg/mL
- MCP-5 (Monocyte Chemoattractant Protein-5) (Day 34, LDD 46.38): 57.8 pg/mL and 29.2 pg/mL and 46.7 pg/mL
- SCF (Stem Cell Factor) (Day 34, LDD 75.17): 182 pg/mL and 220 pg/mL and 217 pg/mL
- Lymphotactin (Day 34, LDD 85.48): 196 pg/mL and 162 pg/mL and 197 pg/mL
- VWF (Von Willebrand Factor) (Day 34, LDD 98.6): 101 ng/mL and 137 ng/mL and 135 ng/mL
- M-CSF (Macrophage-Colony Stimulating Factor) (Day 41, LDD 0.01795): 5.02 ng/mL and 5.67 ng/mL and 6.07 ng/mL
- MIP-1gamma (Macrophage Inflammatory Protein-1gamma) (Day 41, LDD 0.0736): 42.8 ng/mL and 32.7 ng/mL and 42.5 ng/mL
- OSM (Oncostatin M) (Day 41, LDD 0.13): <low>
- TNF-alpha (Tumor Necrosis Factor-alpha) (Day 41, LDD 0.137): <low>
- IL-5 (Interleukin-5) (Day 41, LDD 0.194): 0.474 ng/mL and 0.254 ng/mL and 0.264 ng/mL
- MIP-1alpha (Macrophage Inflammatory Protein-1alpha) (Day 41, LDD 0.2255): 3.13 ng/mL and 2.93 ng/mL and 3.03 ng/mL
- IL-7 (Interleukin-7) (Day 41, LDD 0.309): <low>
- MIP-3beta (Macrophage Inflammatory Protein-3beta) (Day 41, LDD 0.465): 3.05 ng/mL and 3.03 ng/mL and 2.87 ng/mL
- Tissue Factor (Day 41, LDD 0.5175): 10.8 ng/mL and 9.17 ng/mL and 9.37 ng/mL
- MPO (Myeloperoxidase) (Day 41, LDD 0.95): 208 ng/mL and 228 ng/mL and 285 ng/mL
- SGOT (Serum Glutamic-Oxaloacetic Transaminase) (Day 41, LDD 1.86): 85.8 µg/mL and 93.9 µg/mL and 71.1 µg/mL
- TPO (Thromboproletin) (Day 41, LDD 2.66): 38 ng/mL and 32.4 ng/mL and 36.1 ng/mL
- SAP (Setrum Amtyloid P) (Day 41, LDD 5.4): 47.9 µg/mL and 38.6 µg/mL and 46 µg/mL
- MIP-2 (Macrophage Inflammatory Protein-2) (Day 41, LDD 7.174): 25.9 pg/mL and 23.4 pg/mL and 19.7 pg/mL
- MCP-1 (Monocyte Chemoattractant Protein-1) (Day 41, LDD 16.924): 71.9 pg/mL and 53.1 pg/mL and 74.8 pg/mL
- VCAM-1 (Vescular Cell Adhesion Molecule-1) (Day 41, LDD 19): 1840 ng/mL and 1940 ng/mL and 2390 ng/mL
- MDC (Macrophage-Derived Chemokine) (Day 41, LDD 21.85): 1350 pg/mL and 1110 pg/mL and 1290 pg/mL
- MCP-3 (Monocyte Chemoattractant Protein-3) (Day 41, LDD 31.36): 197 pg/mL and 115 pg/mL and 132 pg/mL
- VEGF (Vescular Endotheial Cell Growth Factor) (Day 41, LDD 38.2): 125 pg/mL and 120 pg/mL and 155 pg/mL
- IP-10 (Inducible Protein-10) (Day 41, LDD 40.28): 69.3 pg/mL and 47.6 pg/mL and 59 pg/mL
- LIF (Leukemia Infabitory Factor) (Day 41, LDD 43.6): 1540 pg/mL and 1980 pg/mL
- MCP-5 (Monocyte Chemoattractant Protein-5) (Day 41, LDD 46.38): 48.8 pg/mL and 35.7 pg/mL and 37.9 pg/mL
- SCF (Stem Cell Factor) (Day 41, LDD 75.17): 175 pg/mL and 198 pg/mL and 210 pg/mL
- Lymphotactin (Day 41, LDD 85.48): 187 pg/mL and 148 pg/mL
- VWF (Von Willebrand Factor) (Day 41, LDD 98.6): 113 ng/mL and 111 ng/mL and 133 ng/mL
